According to patent US10913745B2, “Octahydro-pyrrolo[3,4-c]-pyrrole derivatives and analogs thereof as autotaxin inhibitors” (Hoffmann-La Roche Inc., priority 2013, dated 2021):

What follows are compounds tested against ATX (human His-tagged) (Homo sapiens (Human), UniProt Q13822) (assay: Human ATX enzyme inhibition assay (fluorescence quenching, MR121 substrate)). Conditions: MR121 substrate 1 μM, ATX 30 nM final, 30° C.
Assay type: biochemical
Description: Human ATX Enzyme Inhibition Assay
ATX inhibition was measured by a fluorescence quenching assay using a specifically labeled substrate analogue (MR121 substrate). To obtain this MR121 substrate, BOC and TBS protected 6-amino-hexanoic acid (R)-3-({2-[3-(2-{2-[2-(2-amino-ethoxy)-ethoxy]-ethoxy}-ethoxy)-propionylamino]-ethoxy}-hydroxy-phosphoryloxy)-2-hydroxy-propyl ester (Ferguson et al., Org Lett 2006, 8 (10), 2023) was labeled with MR121 fluorophore (CAS 185308-24-1, 1-(3-carboxypropyl)-11-ethyl-1,2,3,4,8,9,10,11-octahydro-dipyrido[3,2-b:2′,3′-i]phenoxazin-13-ium) on the free amine of the ethanolamine side and then, after deprotection, subsequently with tryptophan on the side of the aminohexanoic acid. Assay working solutions were made as follows: Assay buffer (50 mM Tris-HCl, 140 mM NaCl, 5 mM KCl, 1 mM CaCl2, 1 mM MgCl2, 0.01% Triton-X-100, pH 8.0; ATX solution: ATX (human His-tagged) stock solution (1.08 mg/mL in 20 mM bicine, pH 8.5, 0.15 M NaCl, 10% glycerol, 0.3% CHAPS, 0.02% NaN3), diluted to 1.4-2.5× final concentration in assay buffer; MR121 substrate solution: MR121 substrate stock solution (800 μM MR121 substrate in DMSO), diluted to 2-5× final concentration in assay buffer. Test compounds (10 mM stock in DMSO, 8 μL) were obtained in 384 well sample plates (Corning Costar #3655) and diluted with 8 μL DMSO. Row-wise serial dilutions were made by transferring 8 μL cpd solution to the next row up to row O. The compound and control solutions were mixed five times and 2 μL were transferred to 384 well assay plates (Corning Costar #3702). Then, 15 μL of 41.7 nM ATX solution was added (30 nM final concentration), mixed five times and then incubated for 15 minutes at 30° C. 10 μL of MR121 substrate solution was added (1 μM final concentration), mixed 30 times and then incubated for 15 minutes at 30° C.

Compound | IC50 [nM]
CC(C)(C)C(=O)Nc1cc(C#N)ccc1COC(=O)N1C[C@@H]2CN(C(=O)c3ccc(S(N)(=O)=O)cc3)C[C@H]2C1 [Example 1.24, (3aS,6aS)-5-(4-sulfamoyl-benzoyl)-hexahydro-pyrrolo[3,4-c]pyrrole-2-carboxylic acid 4-cyano-2-(2,2-dimethyl-propionylamino)-benzylester] | 12
CC(C)(C)C(=O)Nc1cc(C#N)ccc1COC(=O)N1C[C@@H]2CN(C(=O)c3ccc(S(N)(=O)=O)cc3F)C[C@H]2C1 [Example 1.25, (3aS,6aS)-5-(2-fluoro-4-sulfamoyl-benzoyl)-hexahydro-pyrrolo[3,4-c]pyrrole-2-carboxylic acid 4-cyano-2-(2,2-dimethyl-propionylamino)-benzyl ester] | 2
CC(C)(C)C(=O)Nc1cc(C#N)ccc1COC(=O)N1C[C@@H]2CN(C(=O)c3ccc(S(N)(=O)=O)cn3)C[C@H]2C1 [Example 1.26, (3aS,6aS)-5-(5-sulfamoyl-pyridine-2-carbonyl)-hexahydro-pyrrolo[3,4-c]pyrrole-2-carboxylic acid 4-cyano-2-(2,2-dimethyl-propionylamino)-benzyl ester] | 10
CC(=O)Nc1ccc(C(=O)N2C[C@H]3CN(C(=O)OCc4cc(Cl)cc(Cl)c4)C[C@H]3C2)cc1 [Example 2, (3aR,6aS)-3,5-Dichlorobenzyl 5-(4-acetamidobenzoyl)hexahydropyrrolo[3,4-c]pyrrole-2(1H)-carboxylate] | 342
CC(=O)Nc1ccc(C(=O)N2C[C@H]3CN(C(=O)OCc4cc(Cl)cc(Cl)c4)C[C@H]3C2)nc1 [Example 2.01, (3aR,6aS)-3,5-Dichlorobenzyl 5-(5-acetamidopicolinoyl)hexahydropyrrolo[3,4-c]pyrrole-2(1H)-carboxylate] | 1500
NS(=O)(=O)c1ccc(S(=O)(=O)N2C[C@H]3CN(C(=O)OCc4cc(Cl)cc(Cl)c4)C[C@H]3C2)cc1 [Example 3, (3aR,6aS)-3,5-Dichlorobenzyl 5-(4-sulfamoylphenylsulfonyl)hexahydropyrrolo[3,4-c]pyrrole-2(1H)-carboxylate] | 31
O=C(OCc1cc(Cl)cc(Cl)c1)N1C[C@@H]2CN(C(=O)c3ccc(-c4nnn[nH]4)cc3)C[C@@H]2C1 [Example 4, (3aR,6aS)-3,5-Dichlorobenzyl 5-(4-(1H-tetrazol-5-yl)benzoyl)hexahydropyrrolo[3,4-c]pyrrole-2(1H)-carboxylate] | 573
O=C(O)c1ccc(C(=O)N2C[C@H]3CN(C(=O)OCc4cc(Cl)cc(Cl)c4)C[C@H]3C2)cc1 [Example 5, 4-((3aR,6aS)-5-((3,5-Dichlorobenzyloxy)carbonyl)octahydropyrrolo[3,4-c]pyrrole-2-carbonyl)benzoic acid] | 1340
CS(=O)(=O)Nc1ccc(C(=O)N2C[C@H]3CN(C(=O)OCc4cc(Cl)cc(Cl)c4)C[C@H]3C2)nc1 [Example 6, (3aR,6aS)-3,5-Dichlorobenzyl 5-(5-(methylsulfonamido)picolinoyl)hexahydropyrrolo[3,4-c]pyrrole-2(1H)-carboxylate] | 622
CS(=O)(=O)c1cc(Cl)cc(COC(=O)N2C[C@@H]3CN(C(=O)c4ccc(S(N)(=O)=O)cc4)C[C@H]3C2)c1 [Example 7, (3aS,6aS)-5-(4-Sulfamoyl-benzoyl)-hexahydro-pyrrolo[3,4-c]pyrrole-2-carboxylic acid 3-chloro-5-methanesulfonyl-benzyl ester] | 14.5
NS(=O)(=O)c1ccc(C(=O)N2C[C@H]3CN(C(=O)CCc4ccc(OC(F)(F)F)cc4)C[C@@H]3C2)cc1 [Example 8, 4-{(3aR,6aR)-5-[3-(4-Trifluoromethoxy-phenyl)-propionyl]-hexahydro-pyrrolo[3,4-c]pyrrole-2-carbonyl}-benzenesulfonamide] | 8.5

Now from value to compound:

IC50 [nM] | Compound
1 | NS(=O)(=O)c1ccc(C(=O)N2C[C@H]3CN(C(=O)OCc4ccc(OC(F)(F)F)cc4F)C[C@H]3C2)cc1 [Example 7.01, (3aR,6aS)-5-(4-sulfamoyl-benzoyl)-hexahydro-pyrrolo[3,4-c]pyrrole-2-carboxylic acid 2-fluoro-4-trifluoromethoxy-benzyl ester]
3 | NS(=O)(=O)c1ccc(C(=O)N2C[C@H]3CN(C(=O)OCc4ccc(OC(F)(F)F)cc4)C[C@H]3C2)cc1 [Example 7.02, (3aR,6aS)-5-(4-sulfamoyl-benzoyl)-hexahydro-pyrrolo[3,4-c]pyrrole-2-carboxylic acid 4-trifluoromethoxy-benzyl ester]
4 | NS(=O)(=O)c1ccc(C(=O)N2C[C@H]3CN(C(=O)OCc4ccc(OC(F)(F)F)cc4)C[C@@H]3C2)cc1 [Example 7.03, (3aS,6aS)-5-(4-sulfamoyl-benzoyl)-hexahydro-pyrrolo[3,4-c]pyrrole-2-carboxylic acid 4-trifluoromethoxy-benzyl ester]
7.5 | NS(=O)(=O)c1ccc(C(=O)N2C[C@H]3CN(C(=O)/C=C/c4ccc(OC(F)(F)F)cc4)C[C@@H]3C2)cc1 [Example 8.01, 4-{(3aR,6aR)-5-[(E)-3-(4-trifluoromethoxy-phenyl)-acryloyl]-hexahydro-pyrrolo[3,4-c]pyrrole-2-carbonyl}-benzenesulfonamide]
14 | CC(C)Oc1cc(C(=O)N2C[C@H]3CN(C(=O)c4ccc(S(N)(=O)=O)cc4)C[C@H]3C2)cc2ccccc12 [Example 8.02, 4-[(3aR,6aS)-5-(4-isopropoxy-naphthalene-2-carbonyl)-hexahydro-pyrrolo[3,4-c]pyrrole-2-carbonyl]-benzenesulfonamide]
5.5 | NS(=O)(=O)c1ccc(C(=O)N2C[C@@H]3CN(C(=O)c4cc5ccccc5c(OCC(F)(F)F)n4)C[C@@H]3C2)cc1 [Example 8.03, 4-{(3aR,6aS)-5-[1-(2,2,2-trifluoro-ethoxy)-isoquinoline-3-carbonyl]-hexahydro-pyrrolo[3,4-c]pyrrole-2-carbonyl}-benzenesulfonamide]
166 | Cn1c(C(=O)N2C[C@H]3CN(C(=O)c4ccc(S(N)(=O)=O)cc4)C[C@H]3C2)cc2cc(OC(F)(F)F)ccc21 [Example 8.04, 4-[(3aR,6aS)-5-(1-Methyl-5-trifluoromethoxy-1H-indole-2-carbonyl)-hexahydro-pyrrolo[3,4-c]pyrrole-2-carbonyl]-benzenesulfonamide]
93 | CC(C)Oc1cc(C(=O)N2C[C@H]3CN(C(=O)c4ccc(S(N)(=O)=O)cc4)C[C@H]3C2)nc2ccccc12 [Example 8.05, 4-[(3aR,6aS)-5-(4-Isopropoxy-quinoline-2-carbonyl)-hexahydro-pyrrolo[3,4-c]pyrrole-2-carbonyl]-benzenesulfonamide]
3 | NS(=O)(=O)c1ccc(C(=O)N2C[C@H]3CN(C(=O)c4ccc(-c5ccc(Cl)cc5)cc4)C[C@H]3C2)cc1 [Example 8.06, 4-[(3 aS,6aR)-5-(4′-chloro-biphenyl-4-carbonyl)-hexahydro-pyrrolo[3,4-c]pyrrole-2-carbonyl]-benzenesulfonamide]
1 | NS(=O)(=O)c1ccc(C(=O)N2C[C@H]3CN(C(=O)CCc4ccc(OC(F)(F)F)cc4F)C[C@H]3C2)cc1 [Example 8.07, 4-{(3aS,6aR)-5-[3-(2-fluoro-4-trifluoromethoxy-phenyl)-propionyl]-hexahydro-pyrrolo[3,4-c]pyrrole-2-carbonyl}-benzenesulfonamide]
1.5 | NS(=O)(=O)c1ccc(C(=O)N2C[C@H]3CN(C(=O)CCc4ccc(OC(F)(F)F)cc4)C[C@H]3C2)cc1 [Example 8.08, 4-{(3aS,6aR)-5-[3-(4-trifluoromethoxy-phenyl)-propionyl]-hexahydro-pyrrolo[3,4-c]pyrrole-2-carbonyl}-benzenesulfonamide]
1 | NS(=O)(=O)c1ccc(C(=O)N2C[C@H]3CN(C(=O)CCc4ccc(OC(F)(F)F)cc4F)C[C@@H]3C2)cc1 [Example 8.09, 4-((3 aR,6aR)-5-(3-(2-fluoro-4-(trifluoromethoxy)phenyl)propanoyl)octahydropyrrolo[3,4-c]pyrrole-2-carbonyl)benzenesulfonamide]
